Measured values taken from US20050085644A1, “Novel 3-aryl-2,5-dihydroxy-1,4-benzoquinone derivatives, their preparation method and pharmaceutical compositions containing same” (priority 2002, published 2005).

Assays:
ob/ob C57BL/6 mice = experiment: Chronic in vivo study in ob/ob mice; conditions: female ob/ob C57BL/6 mice, 9 days, 10 or 20 mg/kg po
Description: 11-week-old female ob/ob C57BL/6 mice randomly selected in terms of basal glycaemia from animals that have been fed are treated for 9 days with the test compound at 10 or 20 mg/kg po and compared with a control group receiving 1% HEC. Biological balance (glycaemia, insulinaemia, triglyceridaemia) is reached on the 10th day with the animals that have been fed, the final treatment having taken place the day before. The results are expressed as percentage variations in relation to D0 (glycaemia, body weight) compared with the control group.

protein kinase B = experiment: Activation (phosphorylation) of protein kinase B in CHO-HIR cells, immunoblotting; assay type: cell-based, hamster; conditions: 10^−5M, two hours at 37° C.
Description: (§1) The pharmacological effect of the compounds of the invention on cellular signaling is evaluated in vitro using hamster ovary cells transfected with human insulin receptors (CHO-HIR). The techniques employed are from TAVARE and DENTON (1988, BIOCHEM. J., 250, 509-519) and TAVARE et al. (1988, Biochem. J., 253, 783-788) modified by ISSAD et al. (1991, Biochem. J., 275, 15-21) and COMBETTES-SOUVERAIN et al. (1997, Diabetologia, 40, 533-540).
(§2) The products are studied at 10^−5M under incubation for two hours at 37° C. with CHO-HIR in culture. A negative control (solvent) and a positive control (insulin 50 nM, 5 min incubation) are used in parallel in the same test. […]
(§3) The phosphorylation of the insulin receptors (IR) and the phosphorylation of protein kinase B are evaluated by immunoblotting as follows.
Similarly, the state of phosphorylation of protein kinase B following electrophoresis of the samples on 10% polyacrylamide gel is determined by chemiluminescence after immunoblotting with anti-phospho protein kinase B antibodies (phospho Akt(Ser473) antibody, ref 9271, Cell Signaling) and then related to the total protein kinase B quantity (AKT antibody, ref 9272, Cell signaling).
The phosphorylation induced by the compounds of the invention is expressed as a percentage in relation to 50 nM insulin, fixed at 100% activation.

human insulin receptors = biological target: T1, human insulin receptors (Homo sapiens, UniProt P06213); experiment: Activation (phosphorylation) of insulin receptors in CHO-HIR cells, immunoblotting; assay type: cell-based; conditions: 2 h, 10^−5M, two hours at 37° C., read-out: activation percentage for insulin receptors (phosphorylation in relation to 50 nM insulin fixed at 100%)
T1 construct: expressed in transfected cells; host or cells: CHO-HIR (hamster ovary cells)
Description: as §1, §2, §3
The IR are extracted over wheatgerm lectin; the samples are then subjected to electrophoresis on 7.5% polyacrylamide gel and subjected to an electric transfer onto PDVF membrane in a semi-dry system. […] After dehydridisation and then rehydridisation with an anit-insulin receptor β subunit antibody (βsubunit, ref 06492, Upstate Biotechnology), the total IR quantity deposited on blot is evaluated by chemiluminescence and the phosphorylation rate of the receptors is related to the total receptor quantity deposited. […]

T1 sequence (P06213 28-758 limits assumed): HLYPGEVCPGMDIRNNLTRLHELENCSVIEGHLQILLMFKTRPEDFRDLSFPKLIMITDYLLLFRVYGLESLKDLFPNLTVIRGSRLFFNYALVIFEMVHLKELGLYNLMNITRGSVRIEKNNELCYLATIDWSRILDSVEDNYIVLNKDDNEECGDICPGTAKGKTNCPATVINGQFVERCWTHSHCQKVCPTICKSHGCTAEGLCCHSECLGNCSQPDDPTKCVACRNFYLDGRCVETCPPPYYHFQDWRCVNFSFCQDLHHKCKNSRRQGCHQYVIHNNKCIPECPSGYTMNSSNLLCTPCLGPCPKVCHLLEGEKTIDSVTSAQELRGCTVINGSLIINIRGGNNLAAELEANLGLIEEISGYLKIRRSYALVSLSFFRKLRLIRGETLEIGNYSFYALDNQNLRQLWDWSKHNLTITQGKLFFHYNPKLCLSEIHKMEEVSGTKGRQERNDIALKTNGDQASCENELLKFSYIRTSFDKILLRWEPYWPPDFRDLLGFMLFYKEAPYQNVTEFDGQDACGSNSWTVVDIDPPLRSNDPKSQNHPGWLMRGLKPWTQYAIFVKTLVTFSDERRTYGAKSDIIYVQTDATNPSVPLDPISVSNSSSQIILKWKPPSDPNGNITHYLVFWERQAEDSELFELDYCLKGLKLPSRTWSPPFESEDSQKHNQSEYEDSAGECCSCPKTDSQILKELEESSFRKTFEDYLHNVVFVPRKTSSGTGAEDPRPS

Compound	melting point	activation at 10 µM (human insulin receptors)	activation percentage for protein kinase B (phosphorylation in relation to 50 nM insulin fixed at 100%) (protein kinase B)	other results
C/C(=C\c1ccccc1)C1=C(O)C(=O)C(c2ccccc2)=C(O)C1=O [Example 10, 2,5-Dihydroxy-3-[(E)-1-methyl-2-phenylethenyl]-6-phenyl-1,4-benzoquinone]	–	–	91%	–
O=C1C(O)=C(c2ccc3ccccc3c2)C(=O)C(O)=C1c1ccc(Cl)cc1 [Example 16, 2-(4-Chlorophenyl)-3,6-dihydroxy-5-(2-naphthyl)-1,4-benzoquinone]	–	–	–	insulinaemia, variation compared with the controls (ob/ob C57BL/6 mice; fed, 10th day): −84.2%; glycaemia, percentage variation in relation to D0 (ob/ob C57BL/6 mice; fed, 10th day, controls +4.5%): −60.7%; body weight, percentage variation in relation to D0 (ob/ob C57BL/6 mice; control group +4.9%): −26.9%

The next lines start with results.

melting point	activation at 10 µM (human insulin receptors)	Compound	activation percentage for protein kinase B (phosphorylation in relation to 50 nM insulin fixed at 100%) (protein kinase B)	other results
259 to 260 °C	–	O=C1C(O)=C(c2ccccc2)C(=O)C(O)=C1/C=C/c1ccccc1 [Example 1, 2,5-Dihydroxy-3-phenyl-6-[(E)-2-phenylethenyl]-1,4-benzoquinone]	–	triglycerides, reduction compared with the control (ob/ob C57BL/6 mice; fed, 10th day): −37.8%
240 to 241 °C	–	O=C1C(O)=C(c2ccccc2)C(=O)C(O)=C1/C=C/c1ccc(Br)cc1 [Example 3, 2,5-Dihydroxy-3-phenyl-6-[(E)-2-(4-bromophenyl)-ethenyl]-1,4-benzoquinone]	–	–
–	87.7%	O=C1C(O)=C(c2ccccc2)C(=O)C(O)=C1/C=C/c1ccc(F)cc1 [Example 27, 2-[(E)-2-(4-Fluorophenyl)ethenyl]-3,6-dihydroxy-5-phenyl-1,4-benzoquinone]	48.9%	–
–	134%	O=C1C(O)=C(c2cccc(Cl)c2)C(=O)C(O)=C1/C=C/c1ccccc1 [Example 30, 2-(3-Chlorophenyl)-3,6-dihydroxy-5-[(E)-2-phenylethenyl]-1,4-benzoquinone]	–	–
